Source: article PMC6910946, “Multiple roles of Bet v 1 ligands in allergen stabilization and modulation of endosomal protease activity” (Allergy, 2019)
Entries after “also recorded” stand apart in the source; their conditions may differ.

How the values were obtained:
[1] = tested on: rat basophil (RBL‐2H3) cells transfected with the human high‐affinity IgE receptor (FcεRI); assay: Mediator release assay (IgE cross-linking, basophil degranulation); format: cell-based; settings: sera of six birch pollen allergic subjects
Procedure: (§1) The ability of ligand‐loaded Bet_v_1 to induce IgE‐antigen cross‐linking and basophil degranulation was assessed by mediator‐release assays using rat basophil (RBL‐2H3) cells, transfected with the human high‐affinity IgE receptor (FcεRI), as previously described.2, 24 In vitro uptake of labeled Bet_v_1 was performed using CD11c^+ murine bone marrow–derived dendritic cells (BMDCs). The maturation of human monocyte‐derived dendritic cells (moDCs) was analyzed as previously described.2 T‐cell proliferation assays using CD4^+ T‐cell hybridomas were performed as previously described.17 A detailed description of the in vitro assays is available (Appendix [Link], [Link]).
A mediator-release assay was performed to assess the capacity of ligand-loaded Bet v 1 to induce IgE-antigen-crosslinking and basophil degranulation. In this respect, rat basophil (RBL-2H3) cells, transfected with the human high-affinity IgE receptor (FcεRI) were passively sensitized with sera of six subjects allergic to birch pollen (1:10), and used as previously described.^4 For cell-stimulation, Bet v 1 was used at 10-fold dilutions from 1 µg/ml to 0.01 pg/ml. Toxicity of ligands on RBL-2H3 was determined by cell viability assay using MTT (3-(4,5-Dimethylthiazol-2-yl)-2,5-Diphenyltetrazolium Bromide) from Sigma-Aldrich, Inc. (St. Louis, MO, USA). Results were expressed as percentage of total enzyme release of cells lysed with Triton X-100, and the half maximal release (in ng) was determined. Statistics were calculated with a repeated ANOVA followed by a Dunnett post-hoc test of logarithmically transformed half maximal release values (not significant, ns P > 0.05, *P < 0.05, **P < 0.01, and ***P < 0.001).

[2] = tested on: murine BMDCs / CD4+ T‐cell hybridoma cells specific for epitope Thr142‐Ala153; assay: T-cell proliferation assay: Bet v 1 epitope presentation by BMDCs to CD4+ T-cell hybridomas (IL-2); format: cell-based, mouse; settings: Bet v 1 10 µg/mL with 10-fold molar excess of ligand; 16, 24, 32, 48 h
Procedure: as §1
In order to test the relevance of the identified Bet_v_1 ligands in processing and presentation by DCs in a time‐dependent manner, we incubated BMDCs with Bet_v_1 in complex with different ligands and detected the presentation of Bet_v_1 by using CD4^+ T‐cell hybridoma cells specific for the immune‐dominant T‐cell epitope (Thr142‐Ala153). T‐cell proliferation was monitored indirectly by IL‐2 secretion (Figure 5).
Bet v 1 was incubated over night with a 10-fold molar excess of either Q3OS, PPB1, PPE1, or DOC before incubation with murine BMDCs at a concentration of 10 μg/mL in BMDC medium (online supporting information). After 16, 24, 32, and 48h, DCs were washed and CD4^+ T-cell hybridomas specific for the immune-dominant epitope 142-153 of Bet v 1 were added to the culture at a ratio of 1:10 (DC:T-cell) for 24h^17. Supernatants were harvested and IL-2 levels were determined by ELISA (Invitrogen, Thermo Fisher Scientific, Waltham, MA, USA). As a reference, BMDCs were pulsed at each time point with different concentrations of peptide 142-153 and co-cultured with CD4^+ T-cell hybridomas. By interpolating in a standard curve, a µM peptide equivalent from the measured IL-2 was calculated from DCs pulsed with different peptide concentrations. The assays were carried out in triplicates.

[3] = tested on: CD11c+ murine bone marrow–derived dendritic cells (BMDCs); assay: In vitro antigen uptake of labeled Bet v 1 by BMDCs; format: cell-based, mouse; settings: Bet v 1 with or without ligand; 1, 6, 24 h; FACS
Procedure: as §1
BMDCs from C57BL/6 mouse bone marrow were isolated as described previously.^5 cultured in BMDC medium (RPMI 1640, 5% fetal calf serum, 2 mM L-glutamine, 1% penicillin-streptomycin, 20% granulocyte-macrophage colony-stimulating factor supernatant and 200 µM β-mercaptoethanol) (BMDC medium) for 10 days, and stored frozen in liquid nitrogen. BMDCs were treated over a certain period of time (24, 6 or 1 hours) with 0.5 µg of Bet v 1 per 2x10^5 cells. Bet v 1 was labeled with pHrodo™ Red succinimidyl ester (Thermo Fisher Scientific, Waltham, MA, USA) and pre-incubated with one of the ligands (DOC, Q3OS or PPE1). CD11c^+ cells were analyzed via flow cytometry (allophycocyanin-conjugated anti-mouse CD11c antibody, clone N418; eBioscience, Inc., San Diego, CA, USA) on a FACSCanto II instrument (BD Biosciences, San Jose, CA, USA). For the live/dead staining a fixable viability stain 450 (BD Biosciences) was used. Granulocytes and monocytes were excluded via the V450 Rat anti-Mouse LY-6G and LY-6C (BD Biosciences) antibody. Data were recorded and analyzed using the BD FACSDiva software (BD Biosciences). Statistical analysis was performed using ANOVA with a Bonferroni post-test to compare all groups. The data represent the mean of duplicate experiments and are derived from at least 2 independent experiments.

SMILES	IgE cross‐linking by Bet v 1‐complexes (RBL assay) [1]	MHCII presentation of Bet v 1 epitope (Thr142‐Ala153) on DCs, IL‐2 secretion [2]	antigen uptake of pHrodo Red‐labeled Bet v 1 [3]
O=c1c(O[C@@H]2O[C@H](CO)[C@@H](O)[C@H](O)[C@H]2O[C@@H]2O[C@H](CO)[C@@H](O)[C@H](O)[C@H]2O)c(-c2ccc(O)c(O)c2)oc2cc(O)cc(O)c12 [Q3OS, quercetin 3‐O‐sophoroside]	None of the above described readouts was influenced	did not affect the presentation	None of the above described readouts was influenced
CCC1C(=O)CC(O)C1/C=C/C(O)CCCCCCCC(=O)O (stereo not drawn) [PPE1, E1 phytoprostanes]	None of the above described readouts was influenced	consistently affected the MHCII presentation; also recorded: unique reduction in the presentation of the T‐cell epitopes	None of the above described readouts was influenced
C[C@H](CCC(=O)O)[C@H]1CC[C@H]2[C@@H]3CC[C@@H]4C[C@H](O)CC[C@]4(C)[C@H]3C[C@H](O)[C@]12C [DOC, sodium deoxycholate, reference compound]	None of the above described readouts was influenced	affected only after 48 hours	None of the above described readouts was influenced
